# Assay results reported in US10858335B2 (Rigel Pharmaceuticals, Inc., priority 2014, dated 2020).
# Test system: GDF8 signaling (p-SMAD-3 (Ser423/425))
# Assay: AlphaScreen SureFire SMAD3 (p-Ser423/425) assay, GDF8-stimulated cells (GDF pSMAD)
# Format: cell-based
# Conditions: Mus musculus, MPC-11, GDF8-stimulated pSMAD3, MPC11; tested as the salt form given; read-out: GDF pSMAD (MPC11) (μM), inhibition of GDF8 signaling
row,IC50 [µM],SMILES
1,0.958,"Cc1cc(F)c(C(F)F)cc1-c1ncccc1-c1ccc2ncnc(N)c2c1 [compound 1025, 6-(2-(5-(difluoromethyl)-4-fluoro-2-methylphenyl)pyridin-3-yl)quinazolin-4-amine]"
2,0.562,"Nc1ncnc2ccc(-c3cccnc3-c3ccc(F)c(OC(F)F)c3)cc12 [compound 1010, 6-(2-(3-(difluoromethoxy)-4-fluorophenyl)pyridin-3-yl)quinazolin-4-amine]"
3,0.737,"Cc1cc(-c2ncccc2-c2ccc3ncnc(NCC(N)=O)c3c2)ccc1F [compound 1026, 2-((6-(2-(4-fluoro-3-methylphenyl)pyridin-3-yl)quinazolin-4-yl)amino)acetamide]"
4,1.63,CN1CCN(CCCNc2ncnc3ccc(-c4cccnc4-c4cc(Cl)ccc4F)cc23)CC1 [compound 1046]

# Same assay, conditions: Mus musculus, MPC-11, MPC11; GDF8-stimulated; p-SMAD3 AlphaScreen; read-out: GDF pSMAD (MPC11) (inhibition of GDF8 signaling)
row,SMILES,IC50 [µM]
1,"Cc1cc(-c2ncccc2-c2ccc3ncc(C(F)(F)F)n3c2)ccc1F [compound 555, 6-(2-(4-Fluoro-3-methylphenyl)pyridin-3-yl)-3-(trifluoromethyl)imidazo[1,2-a]pyridine]",0.156
2,"NC(=O)c1ccnc2ccc(-c3cccnc3-c3cc(Cl)ccc3F)cc12 [compound 849, 6-(2-(5-Chloro-2-fluorophenyl)pyridin-3-yl)quinoline-4-carboxamide]",18.1
3,"Cc1cccc(-c2ncccc2-c2ccc3nc(N)ncc3c2)c1 [compound 384, 6-(2-(m-Tolyl)pyridin-3-yl)quinazolin-2-amine]",7.79
4,"Fc1ccc(-c2ncccc2-c2ccc3[nH]ncc3c2)cc1 [Compound 66, 5-[2-(4-Fluorophenyl)pyridin-3-yl]-1H-indazole]",1.78
5,"Cc1cnc(-c2cc(Cl)c(F)cc2F)c(-c2ccn3ncnc3c2)c1 [compound 865, 7-(2-(5-Chloro-2,4-difluorophenyl)-5-methylpyridin-3-yl)-[l 1,2,4]triazolo[1,5-a]pyridine]",0.608
6,"Cc1cc(-c2ncccc2-c2ccc3ncc(C(=O)NCCCn4ccnc4)n3c2)ccc1F [compound 653, N-(3-(1H-Imidazol-1-yl)propyl)-6-(2-(4-fluoro-3-methylphenyl)pyridin-3-yl)imidazo[1,2-a]pyridine-3-carboxamide]",1.04
7,"Cc1cc(-c2ncccc2-c2ccc3onc(N)c3c2)ccc1F [compound 795, 5-(2-(4-Fluoro-3-methylphenyl)pyridin-3-yl)benzo[d]isoxazol-3-amine]",8.11
8,"Cc1cc(-c2ncccc2-c2ccc3ncnc(OCCc4scnc4C)c3c2)ccc1F [compound 445, 5-(2-((6-(2-(4-Fluoro-3-methylphenyl)pyridin-3-yl)quinazolin-4-yl)oxy)ethyl)-4-methylthiazole]",0.515
9,"Cc1cc(-c2ncccc2-c2ccc3nccc(N)c3c2)ccc1F [compound 836, 6-(2-(4-Fluoro-3-methylphenyl)pyridin-3-yl)quinolin-4-amine]",5.94
10,"Cc1cc(-c2ncccc2-c2ccc3nc(F)cn3c2)ccc1F [compound 254, 2-Fluoro-6-(2-(4-fluoro-3-methylphenyl)pyridin-3-yl)imidazo[1,2-a]pyridine]",0.39
11,"NC(=O)c1cnc2ccc(-c3cccnc3-c3ccc(F)c(Cl)c3)cn12 [compound 843, 6-(2-(3-Chloro-4-fluorophenyl)pyridin-3-yl)imidazo[1,2-a]pyridine-3-carboxamide]",0.0213
12,"Nc1ncnc2ccc(-c3cccnc3-c3cc(O)cc(F)c3)cc12 [compound 494, 3-(3-(4-Aminoquinazolin-6-yl)pyridin-2-yl)-5-fluorophenol]",0.107
13,"Cc1cc(-c2ncccc2-c2ccc3cnc(C(=O)NCCN4CCCC4)n3c2)ccc1F [compound 272, 6-(2-(4-Fluoro-3-methylphenyl)pyridin-3-yl)-N-(2-(pyrrolidin-1-yl)ethyl)imidazo[1,5-a]pyridine-3-carboxamide]",3.4
14,"Cc1cc(-c2ncccc2-c2ccn3ncc(C(=O)N[C@H]4CN5CCC4CC5)c3c2)ccc1F [compound 793, (R)-5-(2-(4-Fluoro-3-methylphenyl)pyridin-3-yl)-N-(quinuclidin-3-yl)pyrazolo[1,5-a]pyridine-3-carboxamide]",2.08
15,"Cc1cc(-c2ncc(NCc3ccc(O)c(OC(F)(F)F)c3)cc2-c2ccc3ncsc3c2)ccc1F [compound 371, 4-(((5-(Benzo[d]thiazol-6-yl)-6-(4-fluoro-3-methylphenyl)pyridin-3-yl)amino)methyl)-2-(trifluoromethoxy)phenol]",0.737
16,"Cc1cc(-c2ncccc2-c2ccc3c(cnn3C(=O)NCCCN(C)C)c2)ccc1F [compound 634, N-(3-(Dimethylamino)propyl)-5-(2-(4-fluoro-3-methylphenyl)pyridin-3-yl)-1H-indazole-1-carboxamide]",14.8
17,"Fc1ccc(-c2ncccc2-c2ccc3ncc(-c4cc[nH]n4)n3c2)cc1Cl [compound 852, 6-(2-(3-Chloro-4-fluorophenyl)pyridin-3-yl)-3-(1H-pyrazol-3-yl)imidazo[1,2-a]pyridine]",0.207

# Now from value to compound:
row,IC50 [µM],SMILES
1,7.54,"Cc1cc(-c2ncc(NC(=O)CCN3CCOCC3)cc2-c2ccc3ncsc3c2)ccc1F [compound 312, N-(5-(Benzo[d]thiazol-6-yl)-6-(4-fluoro-3-methylphenyl)pyridin-3-yl)-3-morpholinopropanamide]"
2,0.341,"Cc1cccc(-c2ncccc2-c2ccc3cn[nH]c3c2)c1 [Compound 102, 6-(2-m-Tolylpyridin-3-yl)-1H-indazole]"
3,3.33,"Cc1cc(-c2ncccc2-c2ccc3ncnc(NCCc4cccnc4)c3c2)ccc1F [compound 414, 6-(2-(4-Fluoro-3-methylphenyl)pyridin-3-yl)-N-(2-(pyridin-3-yl)ethyl)quinazolin-4-amine]"
4,0.411,"Cc1cc(-c2ncc(NCc3ccc(O)c(C(F)(F)F)c3)cc2-c2ccc3ncsc3c2)ccc1F [compound 370, 4-(((5-(Benzo[d]thiazol-6-yl)-6-(4-fluoro-3-methylphenyl)pyridin-3-yl)amino)methyl)-2-(trifluoromethyl)phenol]"
5,0.595,"Cc1cnc(-c2ccc(F)c(C)c2)c(-c2ccc3[nH]ncc3c2)c1 [Compound 11, 5-(2-(4-Fluoro-3-methylphenyl)-5-methylpyridin-3-yl)-1H-indazole]"
6,0.426,"Cc1cccc(-c2ncccc2-c2ccc3nccnc3c2)c1 [compound 540, 6-(2-(m-Tolyl)pyridin-3-yl)quinoxaline]"
7,0.707,"N#Cc1cnc2ccc(-c3cccnc3-c3ccc(F)c(C4CC4)c3)cn12 [compound 223, 6-(2-(3-Cyclopropyl-4-fluorophenyl)pyridin-3-yl)imidazo[1,2-a]pyridine-3-carbonitrile]"
8,1.31,"Fc1cc(Cl)cc(-c2ncccc2-c2ccc3ncnn3c2)c1 [compound 770, 6-(2-(3-Chloro-5-fluorophenyl)pyridin-3-yl)-[1,2,4]triazolo[1,5-a]pyridine]"
9,0.0649,"Nc1cnc(-c2cccc(C3CC3)c2)c(-c2ccc3[nH]ncc3c2)c1 [Compound 15, 6-(3-Cyclopropylphenyl)-5-(1H-indazol-5-yl)pyridin-3-amine]"
10,1.61,"CC(=O)NCCCNC(=O)c1cnc2ccc(-c3cccnc3-c3ccc(F)c(C)c3)cn12 [compound 816, N-(3-Acetamidopropyl)-6-(2-(4-fluoro-3-methylphenyl)pyridin-3-yl)imidazo[1,2-a]pyridine-3-carboxamide]"
11,0.175,"Cc1cccc(-c2ncccc2-c2ccc3ncc(C)n3c2)c1 [compound 528, 3-Methyl-6-(2-(m-Tolyl)pyridin-3-yl)imidazo[1,2-a]pyridine]"
12,0.161,"Nc1ncnc2ccc(-c3cccnc3-c3cccc(OCC(F)(F)F)c3)cc12 [compound 484, 6-(2-(3-(2,2,2-Trifluoroethoxy)phenyl)pyridin-3-yl)quinazolin-4-amine]"
13,10.1,"Cc1cc(-c2ncccc2-c2ccn3ncc(C(=O)NCC45CCCN4CCC5)c3c2)ccc1F [compound 804, 5-(2-(4-Fluoro-3-methylphenyl)pyridin-3-yl)-N-((tetrahydro-1H-pyrrolizin-7a(5H)-yl)methyl)pyrazolo[1,5-a]pyridine-3-carboxamide]"
14,15.7,"Cc1cc(-c2ncc(NC(=O)NC(C)C)cc2-c2ccc3c(cnn3C(=O)NC(C)C)c2)ccc1F [compound 215, 5-(2-(4-Fluoro-3-methylphenyl)-5-(3-isopropylureido)pyridin-3-yl)-N-isopropyl-1H-indazole-1-carboxamide]"
15,1.3,"O=c1cnc2ccc(-c3cccnc3-c3ccc(F)c(Cl)c3)cc2[nH]1 [compound 890, 7-(2-(3-Chloro-4-fluorophenyl)pyridin-3-yl)quinoxalin-2(1H)-one]"
16,5.2,"c1cc(-c2ncccc2-c2ccc3ncc(N4CCCC4)n3c2)cc(C2CC2)c1 [compound 563, 6-(2-(3-Cyclopropylphenyl)pyridin-3-yl)-3-(pyrrolidin-1-yl)imidazo[1,2-a]pyridine]"
17,0.676,"Fc1cc(F)c(-c2ncccc2-c2ccn3ncnc3c2)cc1Cl [compound 735, 7-(2-(5-Chloro-2,4-difluorophenyl)pyridin-3-yl)-[1,2,4]triazolo[1,5-a]pyridine]"
18,10.8,"Cc1cc(-c2ncccc2-c2ccc3ncc(C(=O)Nc4ccc(S(N)(=O)=O)cc4)n3c2)ccc1F [compound 617, 6-(2-(4-Fluoro-3-methylphenyl)pyridin-3-yl)-N-(4-sulfamoylphenyl)imidazo[1,2-a]pyridine-3-carboxamide]"
19,0.479,"Cc1cc(-c2ncc(NCc3cccc4cnccc34)cc2-c2ccc3ncsc3c2)ccc1F [compound 337, 5-(Benzo[d]thiazol-6-yl)-6-(4-fluoro-3-methylphenyl)-N-(isoquinolin-5-ylmethyl)pyridin-3-amine]"
20,2.32,"Clc1cccc(-c2ncccc2-c2ccc3nccnc3n2)c1 [compound 739, 6-(2-(3-Chlorophenyl)pyridin-3-yl)pyrido[2,3-b]pyrazine]"
21,6.33,"Fc1ccc(-c2ncccc2-c2cnc3[nH]ncc3c2)cc1 [Compound 80, 5-(2-(4-Fluorophenyl)pyridin-3-yl)-1H-pyrazolo[3,4-b]pyridine]"
